In general, Ki refers to a dissociation constant, usually derived from enzyme kinetics or from competition with a known ligand.

The source of these data is patent publication US6689790B2, “Substituted triazolopyridine compounds” (Hoffmann-La Roche Inc., priority 2001, dated 2004).

Structures are written as SMILES.

In one assay the target is T1, human adenosine A2A receptor (Homo sapiens, UniProt P29274).
T1 construct: expressed in transfected cells; host or cells: CHO cells, semliki forest virus expression system; washed membranes
T1 sequence (P29274 whole entry): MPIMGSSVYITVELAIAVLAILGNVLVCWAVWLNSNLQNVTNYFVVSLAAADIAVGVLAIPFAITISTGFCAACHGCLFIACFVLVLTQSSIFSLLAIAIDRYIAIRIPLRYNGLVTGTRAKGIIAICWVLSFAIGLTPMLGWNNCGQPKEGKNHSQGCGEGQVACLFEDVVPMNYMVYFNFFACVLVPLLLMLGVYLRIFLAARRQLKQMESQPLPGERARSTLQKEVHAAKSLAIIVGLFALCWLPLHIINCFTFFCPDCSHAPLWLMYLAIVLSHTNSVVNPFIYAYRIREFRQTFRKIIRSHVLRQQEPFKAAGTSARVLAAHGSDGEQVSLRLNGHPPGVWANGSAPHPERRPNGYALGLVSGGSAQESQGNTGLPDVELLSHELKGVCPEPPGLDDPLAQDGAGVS
The experiment in a line: [3H]-SCH-58261 binding assay, human adenosine A2A receptor (CHO cell membranes, SPA). Conditions: [3H]-SCH-58261 displacement; Ki by Cheng-Prussoff; table of preferred compounds; read-out: hA2a Ki. Here is the method:
Human Adenosine A2A Receptor
The human adenosine A2A receptor was recombinantly expressed in chinese hamster ovary (CHO) cells using the semliki forest virus expression system. Cells were harvested, washed twice by centrifugation, homogenized and again washed by centrifugation. The final washed membrane pellet was suspended in a Tris (50 mM) buffer containing 120 mM NaCl, 5 mM KCl, 2 mM CaCl2 and 10 mM MgCl2 (pH 7.4) (buffer A). […] Compounds were tested at 10 concentrations from 10 μM-0.3 nM. All assays were conducted in duplicate and repeated at least two times. Assay plates were incubated for 1 hour at room temperature before centrifugation and then bound ligand determined using a Packard Topcount scintillation counter. IC50 values were calculated using a non-linear curve fitting program and Ki values calculated using the Cheng-Prussoff equation.
For `C[C@@H]1C[C@@H](C)CN(C(=O)c2cc(N)c3nc(-c4ccc(Br)o4)nn3c2)C1` (stereo in doubt) [Example 14, [8-Amino-2-(5-bromo-furan-2-yl)-[1,2,4]triazolo[1,5-a]pyridin-6-yl]-(3,5-dimethyl-piperidin-1-yl)-methanone], the Ki was 37.2 nM.

Staying with this assay, now noted: [3H]-SCH-58261 displacement; list of examples 10-108; read-out: hA2a Ki.
Consider `Cc1ccc(-c2nc3c(N)cc(C(=O)N(C)CCc4ccccc4)cn3n2)s1` [Example 103, 8-Amino-2-(5-methyl-thiophen-2-yl)-[1,2,4]triazolo[1,5-a]pyridine-6-carboxylic acid methyl-phenethyl-amide], for which the Ki is 309 nM.

Regarding `Nc1cc(C(=O)N2CCCC2)cn2nc(-c3nccs3)nc12` [Example 104, (8-Amino-2-thiazol-2-yl-[1,2,4]triazolo[1,5-a]pyridin-6-yl)-pyrrolidin-1-yl-methanone], the Ki turned out to be 564 nM.

Consider `CC1CCCN1C(=O)c1cc(N)c2nc(-c3nccs3)nn2c1` (stereo not shown) [Example 105, (8-Amino-2-thiazol-2-yl-[1,2,4]triazolo[1,5-a]pyridin-6-yl)-(2-methyl-pyrrolidin-1-yl)-methanone], for which the Ki is 654 nM.

Take `CCCCN(C)C(=O)c1cc(N)c2nc(-c3nccs3)nn2c1` [Example 106, 8-Amino-2-thiazol-2-yl-[1,2,4]triazolo[1,5-a]pyridine-6-carboxylic acid butyl-methyl-amide]: the Ki amounted to 844 nM.

Regarding `CC1CCCN(C(=O)c2cc(N)c3nc(-c4nccs4)nn3c2)C1` (stereo not shown) [Example 107, (8-Amino-2-thiazol-2-yl-[1,2,4]triazolo[1,5-a]pyridin-6-yl)-(3-methyl-piperidin-1-yl)-methanone], the Ki was 632 nM.

As to `CN(CCc1ccccc1)C(=O)c1cc(N)c2nc(-c3nccs3)nn2c1` [Example 108, 8-Amino-2-thiazol-2-yl-[1,2,4]triazolo[1,5-a]pyridine-6-carboxylic acid methyl-phenethyl-amide], the Ki worked out at 988 nM.

Staying with this assay, now noted: ratio hA1 Ki / hA2a Ki.
Turning to `C[C@@H]1C[C@@H](C)CN(C(=O)c2cc(N)c3nc(-c4ccc(Br)o4)nn3c2)C1` (stereo in doubt) [Example 14, [8-Amino-2-(5-bromo-furan-2-yl)-[1,2,4]triazolo[1,5-a]pyridin-6-yl]-(3,5-dimethyl-piperidin-1-yl)-methanone], the “Select. A1/A2a” value is 32.

The target in a further assay is T2, hA1 (Homo sapiens, UniProt P30542).
T2 sequence (P30542 1-326): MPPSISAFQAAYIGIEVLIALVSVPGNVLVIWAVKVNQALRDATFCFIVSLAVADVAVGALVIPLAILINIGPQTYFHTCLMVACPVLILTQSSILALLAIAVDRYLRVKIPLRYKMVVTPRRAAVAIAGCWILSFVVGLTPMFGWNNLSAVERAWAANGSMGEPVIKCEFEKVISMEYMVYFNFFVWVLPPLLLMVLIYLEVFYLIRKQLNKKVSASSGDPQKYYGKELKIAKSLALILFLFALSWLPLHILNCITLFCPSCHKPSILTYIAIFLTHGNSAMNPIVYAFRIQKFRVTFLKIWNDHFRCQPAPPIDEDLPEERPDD
As to the kind of experiment: hA1 receptor affinity (Ki). Type of assay: binding. Conditions: list of examples 10-108.
`C[C@@H]1C[C@@H](C)CN(C(=O)c2cc(N)c3nc(-c4ccc(Br)o4)nn3c2)C1` (stereo in doubt) [Example 14, [8-Amino-2-(5-bromo-furan-2-yl)-[1,2,4]triazolo[1,5-a]pyridin-6-yl]-(3,5-dimethyl-piperidin-1-yl)-methanone] had a Ki of 1190 nM.

The compound `COCC1CCCN1C(=O)c1cc(N)c2nc(-c3ccc(Br)o3)nn2c1` (stereo in doubt) [Example 17, [8-Amino-2-(5-bromo-furan-2-yl)-[1,2,4]triazolo[1,5-a]pyridin-6-yl]-((S)-2-methoxymethyl-pyrrolidin-1-yl)-methanone] showed an inhibition constant (Ki) of 1230 nM.

Regarding `CCN(CC)C(=O)c1cc(N)c2nc(-c3ccc(Br)o3)nn2c1` [Example 10, 8-Amino-2-(5-bromo-furan-2-yl)-[1,2,4]triazolo[1,5-a]pyridine-6-carboxylic acid diethylamide], the inhibition constant (Ki) came to 2260 nM.

Turning to `Nc1cc(C(=O)N2CCCC2)cn2nc(-c3ccc(Br)o3)nc12` [Example 11, [8-Amino-2-(5-bromo-furan-2-yl)-[1,2,4]triazolo[1,5-a]pyridin-6-yl]-pyrrolidin-1-yl-methanone], the inhibitory constant (Ki) is 1270 nM.

`CC1CCCN1C(=O)c1cc(N)c2nc(-c3ccc(Br)o3)nn2c1` (stereo not shown) [Example 12, [8-Amino-2-(5-bromo-furan-2-yl)-[1,2,4]triazolo[1,5-a]pyridin-6-yl]-(2-methyl-pyrrolidin-1-yl)-methanone] returned a Ki of 1120 nM.

With `CCN(CC)C(=O)C1CCCN(C(=O)c2cc(N)c3nc(-c4ccc(Br)o4)nn3c2)C1` (stereo not shown) [Example 13, 1-[8-Amino-2-(5-bromo-furan-2-yl)-[1,2,4]triazolo[1,5-a]pyridine-6-carbonyl]-piperidine-3-carboxylic acid diethylamide], the inhibitory constant (Ki) came to 2690 nM.

`CC1CCCCN1C(=O)c1cc(N)c2nc(-c3ccc(Br)o3)nn2c1` (stereo not shown) [Example 15, [8-Amino-2-(5-bromo-furan-2-yl)-[1,2,4]triazolo[1,5-a]pyridin-6-yl]-(2-methyl-piperidin-1-yl)-methanone] displayed a Ki of 1940 nM.

Take `COC[C@@H]1CCCN1C(=O)c1cc(N)c2nc(-c3ccc(Br)o3)nn2c1` [Example 16, [8-Amino-2-(5-bromo-furan-2-yl)-[1,2,4]triazolo[1,5-a]pyridin-6-yl]-(2-methoxymethyl-pyrrolidin-1-yl)-methanone]: affinity was put at a Ki of 1050 nM.

Compound `CN(C)C(=O)CN(C)C(=O)c1cc(N)c2nc(-c3ccc(Br)o3)nn2c1` [Example 19, 8-Amino-2-(5-bromo-furan-2-yl)-[1,2,4]triazolo[1,5-a]pyridine-6-carboxylic acid dimethylcarbamoyl-methyl-methyl-amide] returned a Ki of 3000 nM.

Compound `CC1CCCN(C(=O)c2cc(N)c3nc(-c4ccc(Br)o4)nn3c2)C1` (stereo not shown) [Example 20, [8-Amino-2-(5-bromo-furan-2-yl)-[1,2,4]triazolo[1,5-a]pyridin-6-yl]-(3-methyl-piperidin-1-yl)-methanone] registered a Ki of 803 nM.

`CCCN(C)C(=O)c1cc(N)c2nc(-c3ccc(Br)o3)nn2c1` [Example 21, 8-Amino-2-(5-bromo-furan-2-yl)-[1,2,4]triazolo[1,5-a]pyridine-6-carboxylic acid methyl-propyl-amide] gave a Ki of 1150 nM.

For the compound `CCN(CCc1ccccn1)C(=O)c1cc(N)c2nc(-c3ccc(Br)o3)nn2c1` [Example 22, 8-Amino-2-(5-bromo-furan-2-yl)-[1,2,4]triazolo[1,5-a]pyridine-6-carboxylic acid ethyl-(2-pyridin-2-yl-ethyl)-amide], affinity was put at a Ki of 1420 nM.

In turn, `Nc1cc(C(=O)N2CCSCC2)cn2nc(-c3ccc(Br)o3)nc12` [Example 23, [8-Amino-2-(5-bromo-furan-2-yl)-[1,2,4]triazolo[1,5-a]pyridin-6-yl]-thiomorpholin-4-yl-methanone] gave a Ki of 937 nM.

On to `CN(CCc1ccccc1)C(=O)c1cc(N)c2nc(-c3ccc(Br)o3)nn2c1` [Example 25, 8-Amino-2-(5-bromo-furan-2-yl)-[1,2,4]triazolo[1,5-a]pyridine-6-carboxylic acid methyl-phenethyl-amide], for which the affinity corresponds to a Ki of 590 nM.

`Nc1cc(C(=O)N2CCCC2)cn2nc(-c3ccccn3)nc12` [Example 26, (8-Amino-2-pyridin-2-yl-[1,2,4]triazolo[1,5-a]pyridin-6-yl)-pyrrolidin-1-yl-methanone] came in with a Ki of 3570 nM.

`Nc1cc(C(=O)N2CCCC2)cn2nc(-c3ccco3)nc12` [Example 34, (8-Amino-2-furan-2-yl-[1,2,4]triazolo[1,5-a]pyridin-6-yl)-pyrrolidin-1-yl-methanone] showed an inhibition constant (Ki) of 4200 nM.

Turning to `Nc1cc(C(=O)N2CCCCC2)cn2nc(-c3ccco3)nc12` [Example 35, (8-Amino-2-furan-2-yl-[1,2,4]triazolo[1,5-a]pyridin-6-yl)-piperidin-1-yl-methanone], the Ki was determined as 3440 nM.

For `Nc1cc(C(=O)N2CCCC2)cn2nc(-c3cccs3)nc12` [Example 51, (8-Amino-2-thiophen-2-yl-[1,2,4]triazolo[1,5-a]pyridin-6-yl)-pyrrolidin-1-yl-methanone], the Ki was 725 nM.

`Cc1ccc(-c2nc3c(N)cc(C(=O)N4CCCC4)cn3n2)o1` [Example 83, [8-Amino-2-(5-methyl-furan-2-yl)-[1,2,4]triazolo[1,5-a]pyridin-6-yl]-pyrrolidin-1-yl-methanone] yielded a Ki of 1640 nM.

Compound `Cc1ccc(-c2nc3c(N)cc(C(=O)N4CCCCC4)cn3n2)o1` [Example 84, [8-Amino-2-(5-methyl-furan-2-yl)-[1,2,4]triazolo[1,5-a]pyridin-6-yl]-piperidin-1-yl-methanone] gave a Ki of 1270 nM.
